Measured values taken from patent US12269801B2, “Modified amino acids” (SUTRO BIOPHARMA, INC., priority 2012, dated 2025).

Experiments:
[1] = Reactivity of azido amino acids with DBCO analog (60), loss of DBCO absorbance at 310 nm; assay type: physicochemical; details: reaction with compound (60); for second-order rate constant: PBS buffer, 25° C., from plot of kobs vs. [Azide]; for rate constant fold higher than compound (50): relative to compound (50)
Procedure: DBCO analog (60), was dissolved in acetonitrile to a concentration of 60 μM. Amino acid analogs (30), (40), and (50) were serially diluted in PBS buffer in the wells of a 96-well microtiter plate to a volume of 180 μL. 20 μL of DBCO analog stock solution was added to each well and the kinetics of the loss of DBCO to form the addition adduct was monitored at 310 nm by absorbance using a SpectraMax plate reader at 25° C. A schematic of the reaction of compounds (30), (40), and (50) with compound (60) is shown as FIG. 1. The kinetics accurately fit a first order decay with […], where kobs is the pseudo first order rate constant with units of sec^−1 under conditions where [Azide compound]>>[DBCO]. A plot of kobs vs. [Azide] yields the second-order rate constant (units of M^−1 sec^−1) for each amino acid, a measure of the intrinsic chemical reactivity of each amino acid.

[2] = Reactivity of amino acid analogs with DBCO-NH2 (61), absorption at 310 nm; assay type: physicochemical; details: 1:1 equivalence; for reaction rate with compound (61): pH 7.4 phosphate buffered saline, compared among analogs; for yield of reaction with compound (61): in six hours
Procedure: DBCO-NH2 (61) was dissolved in pH 7.4 phosphate buffered saline to yield a 500 µM solution. Amino acid analogs (30), (1), and (2) were dissolved in the same buffer to yield 5 mM clear solutions, and then diluted to a concentration of 500 μM using the same buffer. One hundred microliters of each amino acid analog was mixed with 100 μL of compound (61) and vortexed. The absorption of compound (61) was monitored at 310 nm using a NANODROP 1000 UV Spectrometer. Measurements were obtained at 0, 0.5, 2, 6, and 20 hours. The reduction in the absorption of compound (61) is indicative of its reaction with the amino acid analogs.

[3] = tested on: Y50TAG site in GFP; experiment: Cell-free (OCFS) incorporation into GFP at amber codon, fluorescence time course; assay type: biochemical
Text: This example describes incorporation of compound (30) into green fluorescent protein. To monitor synthesis of GFP, the DNA encoding turboGFP containing an amber codon (stop codon) before the chromophore was cloned into OCFS expression vector pYD317. The stop codon (TAG) was inserted by overlapping PCR mutagenesis at the nucleotides corresponding to the amino acid tyrosine at the 50th amino acid according to the crystal structure of turboGFP (pdb 2G6X).
[…] OCFS reaction mix was immediately added to microplate for a 30 μL final reaction volume containing 30% S30 extract, 24 μg/mL T7 RNA polymerase, 1 mM L-tyrosine (Sigma, T8566), pre-mix*, 10 μM tRNA, 5 μM pCNFRS D286R, 1 mM compound (30), and 3 nM turboGFP plasmid (Evrogen, Russia, subcloned into a PYD317 vector) in DEPC-treated water (G Biosciences, 786-109). A positive control reaction using turboGFP without the stop codon was used to ensure that the reactions proceeded with rates similar previously observed, while reactions containing turboGFP Y50TAG were also run without tRNA to ensure no fluorescence was detected (negative control) in the absence of the system responsible for incorporation of pAMF. Incorporation of pAMF into GFP achieves relatively high yields of protein in a site-specific manner.

[4] = tested on: human GMCSF; experiment: Cell-free incorporation into GM-CSF at amber codon, autoradiography; assay type: biochemical; details: 1 mM compound (30), TAG at serine position 6
Procedure: DNA encoding human GMCSF with amber codon was cloned into expression vector pYD317. The TAG codon was inserted by overlapping PCR mutagenesis at the nucleotides corresponding to the amino acid serine at the position 6.
(§1) Cell-free extracts containing tRNA CUA were thawed to room temperature and incubated with 50 μM iodoacetamide for 30 min. Cell-free reactions were run at 30 C for up to 10 h containing 30% (v/v) iodoacetamide-treated extract with 8 mM magnesium glutamate, 10 mM ammonium glutamate, 130 mM potassium glutamate, 35 mM sodium pyruvate, 1.2 mM AMP, 0.86 mM each of GMP, UMP, and CMP, 2 mM amino acids for all 18 amino acids except tyrosine and phenylalanine which were added at 0.5 mM, 4 mM sodium oxalate, 1 mM putrescine, 1.5 mM spermidine, 15 mM potassium phosphate, 100 nM T7 RNAP, 1.3 μM E. coli DsbC, 2 mM oxidized (GSSG) glutathione, 1 μM tRNA synthetase, and 1 mM compound (30). The concentrations of GMCSF TAG variant plasmid was 5 μg/mL. […]
(§2) For reducing gel, 4 μL of sample, 1 μL of 1 M DTT, 7 μL of DI H2O and 4 μL of 4×LDS buffer (Invitrogen, Carlsbad, CA) were mixed and heated in hot blot at 70 C for 5 minutes. Samples were analyzed by 4˜12% Bis-Tris SDS-PAGE gels (Invitrogen, Carlsbad, CA) according to the manufacturer's recommendations. Gels were dried and analyzed by autoradiography using a Storm 840 PhosphoImager after about 16 hours exposure.

[5] = tested on: trastuzumab heavy chain; experiment: Cell-free incorporation into IgG at heavy chain amber codon, autoradiography; assay type: biochemical; details: 1 mM compound (30), TAG at serine position 136 (EU index)
Procedure: TAG codon was inserted by overlapping PCR mutagenesis at the nucleotides corresponding to the amino acid serine at the position 136 by EU index in CHI domain.
as §1, with “extracts” for “extracts containing tRNA CUA”, “DsbC, 5 μM yeast PDI,” for “DsbC,”, “glutathione, 15 μM tRNA,” for “glutathione,”, “heavy chain” for “GMCSF”, “and wild type light chain plasmid were 7.5 μg/mL and 2.5 μg/mL respectively.” for “was 5 μg/mL.”
as §2, with “For non” for “For”, “8” for “1 μL of 1 M DTT, 7”, “before being loaded on gel. […]” for “and heated in hot blot at 70 C for 5 minutes.”

Row | SMILES | second-order rate constant [1] | rate constant fold higher than compound (50) [1] | reaction rate with compound (61) [2] | yield of reaction with compound (61) [2] | other results
1 | [N-]=[N+]=NCCCC(=O)NCCCC[C@H](N)C(=O)O [compound (40)] | 1.4 M⁻¹ s⁻¹ | approximately 7 fold |  |  | 
2 | [N-]=[N+]=Nc1ccc(C[C@H](N)C(=O)O)cc1 [compound (50), p-azido-phenylalanine, reference compound] | 0.2 M⁻¹ s⁻¹ |  |  |  | 
3 | [N-]=[N+]=NCc1ccc(C[C@H](N)C(=O)O)cn1 [compound (2)] |  |  | two- to four-fold slower |  | 
4 | [N-]=[N+]=NCc1ccc(C[C@H](N)C(=O)O)cc1 [compound (30)] | 1.4 M⁻¹ s⁻¹ | approximately 7 fold | comparable rates | almost quantitative yield | RFU ([3]; at 200 minutes): approximately 130,000 RFU; RFU ([3]; at 400 minutes): approximately 160,000 RFU; RFU ([3]; at 600 minutes): approximately 170,000 RFU; incorporation into GMCSF by autoradiography [4]: intact full length GMCSF containing compound (30) was made; incorporation into IgG by autoradiography [5]: intact full length IgG containing compound (30) was made
5 | [N-]=[N+]=NCc1ccc(CC(N)C(=O)O)nc1 (stereo not drawn) [compound (1), 2-Amino-3-(5-azidomethyl-pyridin-2-yl)-propionic Acid] |  |  | comparable rates | almost quantitative yield | 
